Three compounds from ChEMBL document CHEMBL1275411, “Efficacy of SPK-843, a novel polyene antifungal, in comparison with amphotericin B, liposomal amphotericin B, and micafungin against murine pulmonary aspergillosis” (Antimicrob Agents Chemother, 2008) can be followed below.

A word on the MIC: it is the lowest concentration found to suppress growth. Higher therefore signals weaker potency.

In brackets after ≈: the same amount, converted by molar mass. Activity calls are given as the source filed them. No cut-off for these calls is given here. *1 amine or outer side, *2 acyl side, *3 side chain or, on linkers, in order; H or OH if unused. Where a SMILES comes first, the peptide text is derived from it. Bridges are numbered along the chain shown (N, C = ends). [ ]: non-standard residue; d: D form. The star is where a group is joined. hTyr(3S-OH,4S-OH,3'-OSO3H) = N[C@H](C(=O)O)[C@H](O)[C@@H](O)c1ccc(O)c(OS(=O)(=O)O)c1; Orn(4R-OH,5R-OH) = O=C([C@H](C[C@@H](O)[C@@H](O)N[*:3])N[*:1])[*:2]; Pro(3S-OH,4S-Me) = C[C@H]1CN[C@H](C(=O)O)[C@H]1O; X1 = CCCCCOc1ccc(-c2cc(-c3ccc(C(=O)*)cc3)no2)cc1; Gln(3R-OH) = NC(=O)C[C@@H](O)[C@H](N)C(=O)O; Hyp = O=C(O)[C@@H]1C[C@@H](O)CN1

For data set [1], the system named is Aspergillus fumigatus. Description: Antimicrobial activity against Aspergillus fumigatus MF-13 by broth microdilution method. Format: functional. For orientation: Broth dilution looks for growth in wells or tubes with falling amounts of substance.
In data set [2] the test system is Aspergillus niger. The data set is described as follows: Antimicrobial activity against Aspergillus niger infected in DBA/2N mouse at >1 mg/kg, iv qd for 5 days relative to amphotericin B. Format: functional, organism-based.
In data set [3] the test system is Aspergillus flavus. The data set is described as follows: Antimicrobial activity against Aspergillus flavus infected in DBA/2N mouse at >1 mg/kg, iv qd for 5 days relative to amphotericin B. Format: functional, organism-based.
The test system of data set [4] is Aspergillus fumigatus. Description: Antimicrobial activity against Aspergillus fumigatus conidia infected in DBA/2N mouse assessed as increased survival rate at 0.25 to 1 mg/kg, iv qd for 5 days. Format: functional, organism-based.
For data set [5], the system named is Aspergillus. Description: Antimicrobial activity against Aspergillus infected in DBA/2N mouse at 1 mg/kg, iv qd for 5 days. Format: functional, organism-based. Also noted: dose 1 mg/kg.
The test system of data set [6] is Aspergillus fumigatus. Description: Antimicrobial activity against Aspergillus fumigatus infected in DBA/2N mouse at >1 mg/kg, iv qd for 5 days relative to amphotericin B. Format: functional, organism-based.
The test system of data set [7] is Aspergillus. The data set is described as follows: Antimicrobial activity against Aspergillus infected in DBA/2N mouse assessed as increased survival rate at >1 mg/kg, iv qd for 5 days relative to amphotericin B. Format: functional, organism-based.
For data set [8], the system named is Aspergillus flavus. Description: Antimicrobial activity against Aspergillus flavus conidia infected in iv dosed DBA/2N mouse assessed as increased survival rate measured for 5 days. Format: functional, organism-based.
Data set [9] has as its system Aspergillus flavus. Description: Antimicrobial activity against Aspergillus flavus conidia infected in DBA/2N mouse assessed as increased survival rate at =>1 mg/kg, iv qd for 5 days. Format: functional, organism-based.
In data set [10] the test system is Aspergillus niger. The data set is described as follows: Antimicrobial activity against Aspergillus niger conidia infected in iv dosed DBA/2N mouse assessed as increased survival rate measured for 5 days. Format: functional, organism-based.
Data set [11] concerns Aspergillus niger. The data set is described as follows: Antimicrobial activity against Aspergillus niger conidia infected in DBA/2N mouse assessed as increased survival rate at 2 mg/kg, iv qd for 5 days relative to amphotericin B/L-amphotericin B. Format: functional, organism-based. Also noted: dose 2 mg/kg.
Data set [12] concerns Aspergillus niger. Description: Antimicrobial activity against Aspergillus niger TIMM 2814 by broth microdilution method. Format: functional.
Data set [13] relates to Aspergillus fumigatus. The data set is described as follows: Antimicrobial activity against Aspergillus fumigatus conidia infected in DBA/2N mouse assessed as increased survival rate at =>[…] mg/kg, iv qd for 5 days. Format: functional, organism-based.
Data set [14] concerns Aspergillus niger. Description: Antimicrobial activity against Aspergillus niger conidia infected in DBA/2N mouse assessed as increased survival rate at =>0.25 mg/kg, iv qd for 5 days. Format: functional, organism-based.
The test system of data set [15] is Aspergillus flavus. The data set is described as follows: Antimicrobial activity against Aspergillus flavus TIMM 0057 by broth microdilution method. Format: functional.
The test system of data set [16] is Mus musculus. Description: Toxicity in DBA/2N mouse infected with Aspergillus at =<1.0 mg/kg, iv qd after 5 days. Format: organism-based. The following applies: in vivo, 120 h.
The subject of data set [17] is Aspergillus flavus. Description: Antimicrobial activity against Aspergillus flavus conidia infected in DBA/2N mouse assessed as increased survival rate at 4 mg/kg, iv qd for 5 days relative to amphotericin B/L-amphotericin B. Further details: dose 4 mg/kg. Format: functional, organism-based.
For data set [18], the system named is Mus musculus. The data set is described as follows: Toxicity in DBA/2N mouse infected with Aspergillus at >1.0 mg/kg, iv qd for 5 days relative to amphotericin B. Format: organism-based. The following applies: in vivo, 120 h.
Data set [19] concerns Mus musculus. The data set is described as follows: Toxicity in Aspergillosis infected DBA/2N mouse assessed as histopathological lesions in kidney at 1 mg/kg, iv qd after 5 days. The following applies: in vivo, 120 h. Format: organism-based. Also noted: dose 1 mg/kg, route intravenous.
For data set [20], the system named is Mus musculus. The data set is described as follows: Toxicity in Aspergillosis infected DBA/2N mouse assessed as kidney tubular cell necrosis and cast formation at 1 mg/kg, iv qd after 5 days. Format: organism-based. Further details: dose 1 mg/kg, route intravenous. The following applies: in vivo, 120 h.
Data set [21] concerns Mus musculus. Description: Toxicity in Aspergillosis infected DBA/2N mouse assessed as histopathological lesions in kidney at 4 mg/kg, iv qd after 5 days. Format: organism-based. Further details: dose 4 mg/kg, route intravenous. The following applies: in vivo, 120 h.
For data set [22], the system named is Aspergillus fumigatus. The data set is described as follows: Antimicrobial activity against Aspergillus fumigatus conidia infected in DBA/2N mouse assessed as increased survival rate at 2 to 4 mg/kg, iv qd for 5 days. Format: functional, organism-based.

For the compound `CCCCCOc1ccc(-c2cc(-c3ccc(C(=O)N[C@H]4C[C@@H](O)[C@@H](O)NC(=O)[C@@H]5[C@@H](O)[C@@H](C)CN5C(=O)[C@H]([C@H](O)CC(N)=O)NC(=O)[C@H]([C@H](O)[C@@H](O)c5ccc(O)c(OS(=O)(=O)O)c5)NC(=O)[C@@H]5C[C@@H](O)CN5C(=O)[C@H]([C@@H](C)O)NC4=O)cc3)no2)cc1` [MICAFUNGIN] (X1-[Orn(4R-OH,5R-OH)]T[Hyp][hTyr(3S-OH,4S-OH,3'-OSO3H)][Gln(3R-OH)][Pro(3S-OH,4S-Me)]; lactam 1-C), inhibition of growth against Aspergillus fumigatus [1] (MIC) required 0.0156 µg/mL (≈ 0.0123 µM).
For the compound `CNc1ccc(C(=O)CC(O)CC[C@H](C)C2OC(=O)C[C@H](O)CC(=O)C[C@H](O)C[C@H](O)C[C@H](O)C[C@H](O)C[C@]3(O)C[C@H](O)[C@@H](C(=O)NCCN(C)C)[C@H](C[C@@H](O[C@@H]4O[C@H](C)[C@@H](O)[C@H](NC(=O)CN(C)C)[C@@H]4O)/C=C/C=C/C=C/C=C/C=C/C=C/C=C/C2C)O3)cc1.O=C1O[C@H]([C@@H](O)CO)C(O)=C1O.O=C1O[C@H]([C@@H](O)CO)C(O)=C1O` (some centres not stated), the result in the data set on Aspergillus niger [2], with Aspergillus flavus [3], with Aspergillus fumigatus [4], in the data set on Aspergillus fumigatus [6], in the data set on Aspergillus [7] and in the data set with Aspergillus flavus [9] was Active. The result in the data set with Aspergillus niger [11], with Aspergillus fumigatus [13], in the data set on Aspergillus niger [14] and in the data set on Aspergillus flavus [17] was Active. The result with Aspergillus [5] was inactive. The Activity result is “Dose-dependent effect” with Aspergillus flavus [8], “Dose-dependent effect” in the data set with Aspergillus niger [10], “Non-toxic” in the data set with Mus musculus [16] and “Non-toxic” with Mus musculus [18]. The MIC against Aspergillus niger [12] was determined as 0.0625 µg/mL; against Aspergillus flavus [15], 0.25 µg/mL; against Aspergillus fumigatus [1] it was 0.5 µg/mL.
For `C[C@@H]1[C@H](O)[C@@H](C)/C=C/C=C/C=C/C=C/C=C/C=C/C=C/[C@H](O[C@@H]2O[C@H](C)[C@@H](O)[C@H](N)[C@@H]2O)C[C@@H]2O[C@](O)(C[C@@H](O)C[C@@H](O)[C@H](O)CC[C@@H](O)C[C@@H](O)CC(=O)O[C@H]1C)C[C@H](O)[C@H]2C(=O)O` [AMPHOTERICIN B], the Activity result in the data set on Mus musculus [19] was “Non-toxic”; in the data set with Mus musculus [20] it was “Toxic”; in the data set with Mus musculus [21], “Non-toxic”. In addition, the result in the data set on Aspergillus fumigatus [22] and with Aspergillus fumigatus [13] was Active. For the same compound, the MIC with Aspergillus niger [12] came to 0.25 µg/mL (≈ 0.271 µM); against Aspergillus flavus [15], 0.5 µg/mL (≈ 0.541 µM); against Aspergillus fumigatus [1], 0.25 µg/mL (≈ 0.271 µM).
